The test system of data set [1] is eleven nonbinding cell lines (HeLa S3, RKO, 1271, A549, KYSE-70, HT1080, 293H, 1459, HEEpiC, T84, SK-BR-3). As to the kind of experiment: Binding of 32P-labeled decapeptide to cell lines, two hour incubation, scintillation counting. The data set is classed as cell-based.
Method: (§2) Assay of the binding of ^32P-labeled decapeptides to cell lines: Cell lines were grown in complete medium containing 10% bovine fetal serum (heat inactivated). In each well of a 96-well plate, 10,000 cells from various cell lines were grown overnight in complete medium. Ten µl of the labeled-peptide in 1 X PBS and 90 µl of complete medium were added to each well and incubated at 37°C at various times of up to two hours. The peptide-medium was removed and one µl added to 100 ul gel loading buffer and counted by scintillation counting for the probe control or run on a polyacrylamide-SDS gel (Biorad).The adherent cells were briefly and gently washed with complete medium three times and some wells were assayed immediately by adding 100 µl of gel loading buffer to each well and run on a gel or counted in a scintillation counter. Other wells had 100 µl complete medium added and incubated for a further time period. Samples were either counted in a liquid scintillation counter or run on polyacrylamide-SDS gels, exposed to x-ray film, and the film developed.
Data set [2] relates to seven avidly binding cell lines (Caco-2, HCT15, HCT116, LoVo, HT29, SEG1, QHTRT). The data set is described as above. Type of data set: cell-based. Conditions: two hour incubation with 32P-labeled peptide, seven of the eighteen cell lines.
Method: as §2
For another data set, the system named is Caco-2 cells. As to the kind of experiment: Release and retention of 32P counts after washing and further incubation in complete medium. The data set is classed as cell-based. Here is the method: (§1) The peptide binding, washing and assay experiment described for Figure 2 was then repeated in the seven most avidly binding cell lines using MA5, except that after three washes of medium, 200 ul of complete medium was added to each well and the cells were incubated overnight at 37°C. […] Approximately 88% of MA5 radioactive counts initially retained by the colon cancer cell lines was released into the medium, while approximately 12% of initially retained radioactive counts were retained by cells. The two esophageal cell lines that originally retained large amounts of radioactive counts, QH-TRT and SEG1, retained 39% and 37% of their original counts, respectively, after overnight incubation. Caco-2 cells retained the greatest number of counts, averaging 58,305 cpm in triplicate wells containing 10,000 cells each. This figure represents approximately 5.8 cpm, or 348 counts per hour, per cell (i.e., when extrapolated over a potential 2-week exposure period, equivalent to over 87,000 counts per cell).

Data set [3] has as its system QH-TRT Barrett's esophagus cell line. As to the kind of experiment: Release and retention of 32P counts after washing and overnight incubation in complete medium. The data set is classed as cell-based. The conditions noted are these: two hour incubation, three washes, overnight at 37°C in complete medium. Here is the method:
as §1

For data set [4], the system named is SEG1 esophageal adenocarcinoma cell line. The data set is described as above. Type of data set: cell-based. Conditions: two hour incubation, three washes, overnight at 37°C in complete medium. On the procedure: as §1
A further data set deals with colon cancer cell lines. Described as above. The data set is classed as cell-based. Conditions: two hour incubation, three washes. On the procedure:
as §1

The subject of data set [5] is seven avidly binding cell lines. The data set is described as above. Type of data set: cell-based. Conditions: all seven avidly binding lines. Here is the method:
as §1

Data set [6] has as its system Caco-2 colon adenocarcinoma cell line.
Method: as §2
The mark [7] stands for this setting: two hour incubation, three washes, 10,000 cells.
The mark [8] stands for this setting: two hours incubation, three wash steps, overnight incubation in medium.

Take GSRRASVASA [MA5]: the “binding (in words)” value in data set [1] (two hour incubation with 32P-labeled peptide, eleven of eighteen cell lines) is “did not bind”. For the same sequence, in data set [1] (setting [7]), the “average 32P counts bound, remaining eleven cell lines along with one blank well” value came to 365 cpm; the “mean values of 32P counts bound, blank wells and nonbinding cell lines” value was “less than 550 cpm”. Besides, the “retention of radioactivity (in words)” value in data set [2] was “very strong retention of radioactivity”. Moreover, in the data set with Caco-2 cells (48-hour time period after two hour incubation and washing, triplicate determinations), the “time course of release of counts (in words)” value is “majority of the total counts released over the 48 hour time period are released by nine hours of incubation”. In addition, in the data set with Caco-2 cells (average of triplicate wells containing 10,000 cells each, two hour incubation, washes, overnight in medium), the “counts retained by cells after overnight incubation” value was 58,305 cpm. Besides, the “counts per cell extrapolated over a potential 2-week exposure period” value in the data set with Caco-2 cells (extrapolated) was “over 87,000 counts per cell”. In the data set with Caco-2 cells (extrapolated from 5.8 cpm per cell), the “counts per cell per day, extrapolated” value is “over 8,300 counts per cell per day”. In addition, in the data set with Caco-2 cells (setting [8]), the “originally retained 32P isotope released” value stood at 88% and the “originally retained 32P isotope retained by cells” value stood at 12%. Moreover, the “original counts retained after overnight incubation” value in data set [3] was 39%. For the same sequence, the “original counts retained after overnight incubation” value in data set [4] is 37%. For the same sequence, the “radioactive counts initially retained that were released into the medium” value with colon cancer cell lines (200 ul complete medium, overnight at 37°C) is “Approximately 88%”. Further, the “initially retained radioactive counts retained by cells” value with colon cancer cell lines (overnight at 37°C in complete medium) is reported as “approximately 12%”. Moreover, the “radioactivity released after an overnight incubation” value in data set [5] is 63% to 88. The “ratio of cpm retained by Caco-2 to the average of the eleven nonbinding cell lines” value in data set [6] (Caco-2) was determined as 818. Moreover, the “share of the total radioactive counts present in the incubation well retained by cells” value in data set [6] (after two-hour incubation) was “approximately 18%”. For the same sequence, the “radioactive dose transferred per cell” value in data set [6] (two hour incubation, wash, immediate determination of retained radioactivity) is “over 29 counts per minute per cell”. For the same sequence, the “retention difference between variants (MA2 vs MA5)” value in data set [6] (two hours' incubation, counts bound as percentage of total counts) was determined as 70 fold.

(Values after article PMC1978517, “Novel Decapeptides that Bind Avidly and Deliver Radioisotope to Colon Cancer Cells” (PLoS ONE, 2007).)
